In PubChem BioAssay AID1259411 (Chemical Carcinogenesis Research Information System (CCRIS), 2018):
Activity calls are given as the source filed them. How the calls were made is not given here.

System: rodent carcinogenicity bioassays, tumor incidence
Assay: CCRIS carcinogenicity studies
Procedure, shortened: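 Archive of carcinogenicity, mutagenicity, tumor promotion and tumor inhibition results drawn from journals, NCI reports and other sources, expert-reviewed; covers 1985-2011 and is no longer updated.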

Q: With `C[C@]12CC[C@@H]3c4ccc(O)cc4CC[C@H]3[C@@H]1CCC2=O` as the molecule, how does the carcinogen call (Species: HAMSTER, Route: SUBCUTANEOUS, SUBCUTANEOUS IMPLANT, Tumor Site: Type of Lesion: KIDNEY) read?
A: active; positive

Q: And the carcinogen call (Species: HAMSTER, Strain/Sex: SYRIAN/MALE, Route: SUBCUTANEOUS IMPLANT, Dose: 0, 20 MG PELLET, SINGLE DOSE, Tumor Site: Type of Lesion: KIDNEY)?
A: active; positive

Q: What about the carcinogen call (Species: HAMSTER, Strain/Sex: SYRIAN/MALE, Route: SUBCUTANEOUS IMPLANT, Dose: 0, 20 MG IN PELLETS IMPLANTED EVERY 2.5 MO FOR 9 MO (STUDY DURATION: 9 MO), Tumor Site: Type of Lesion: KIDNEY: TUMOR) of the same molecule?
A: active; positive

Q: And the carcinogen call (Species: HAMSTER, Strain/Sex: SYRIAN/MALE, Route: SUBCUTANEOUS, Tumor Site: Type of Lesion: KIDNEY, PITUITARY GLAND: ADENOMA)?
A: active; positive

Q: What about the carcinogen call (Species: HUMAN, Tumor Site: Type of Lesion: UTERUS (ENDOMETRIUM)) of the same molecule?
A: active; positive

Q: And the carcinogen call (Species: MOUSE, Route: ORAL, SUBCUTANEOUS, DERMAL, SUBCUTANEOUS IMPLANT, Tumor Site: Type of Lesion: MAMMARY GLAND)?
A: active; positive

Q: What about the carcinogen call (Species: MOUSE, Strain/Sex: C3H, C3HE(MTV-)/MALE, Route: ORAL, Dose: 125, 2000 UG/L IN DRINKING WATER, Tumor Site: Type of Lesion: MAMMARY GLAND) of the same molecule?
A: active; positive

Q: And the carcinogen call (Species: MOUSE, Strain/Sex: C3R3(MTV+)/MALE, Route: DIET, Dose: 0, 0.06, 0.6, 6 UG/D, Tumor Site: Type of Lesion: MAMMARY GLAND)?
A: active; positive

Q: What about the carcinogen call (Species: MOUSE, Strain/Sex: GRS/AFIB(MTV+)/FEMALE, Route: ORAL, Dose: 0, 0.5 UG/ML FOR 14-25 WK IN DRINKING WATER, Tumor Site: Type of Lesion: UTERUS) of the same molecule?
A: active; positive

Q: What about the carcinogen call (Species: RAT, Route: SUBCUTANEOUS, SUBCUTANEOUS IMPLANT, Tumor Site: Type of Lesion: ADRENAL GLAND, KIDNEY, MAMMARY GLAND, PITUITARY GLAND, URINARY BLADDER, Tumor Site: Type of Lesion: ADRENAL GLAND, KIDNEY, MAMMARY GLAND, PITUITARY GLAND, URINARY BLADDER) of the same molecule?
A: active; positive

Q: And the carcinogen call (Species: RAT, Strain/Sex: AUGUST/MALE,FEMALE, Route: SUBCUTANEOUS IMPLANT, Dose: 8-12 MG PELLET, SINGLE DOSE, Tumor Site: Type of Lesion: MAMMARY GLAND)?
A: active; positive

Q: And the carcinogen call (Species: RAT, Strain/Sex: AXC/MALE,FEMALE, Route: SUBCUTANEOUS IMPLANT, Dose: 8-12 MG PELLET, SINGLE DOSE, Tumor Site: Type of Lesion: MAMMARY GLAND)?
A: active; positive

Q: And the carcinogen call (Species: RAT, Strain/Sex: COPENHAGEN/MALE,FEMALE, Route: SUBCUTANEOUS IMPLANT, Dose: 8-12 MG PELLET, SINGLE DOSE, Tumor Site: Type of Lesion: URINARY BLADDER)?
A: active; positive

Q: What about the carcinogen call (Species: RAT, Strain/Sex: F344/MALE,FEMALE, Route: SUBCUTANEOUS IMPLANT, Dose: 8-12 MG PELLET, SINGLE DOSE, Tumor Site: Type of Lesion: MAMMARY GLAND) of the same molecule?
A: active; positive

Q: How did the carcinogen call (Species: MOUSE, Strain/Sex: B6C3F1/FEMALE, Route: ORAL, Dose: 0, 10000, 20000 PPM IN DIET FOR 104 WK (STUDY DURATION: 106 WK), Dose: 0, 10000, 20000 PPM IN DIET FOR 104 WK (STUDY DURATION: 106 WK), Tumor Site: Type of Lesion: LIVER: HEPATOCELLULAR ADENOMA, HEPATOCELLULAR CARCINOMA, FORESTOMACH: SQUAMOUS CELL ADENOMA, SQUAMOUS CELL CARCINOMA, LU, Tumor Site: Type of Lesion: LIVER: HEPATOCELLULAR ADENOMA, HEPATOCELLULAR CARCINOMA, FORESTOMACH: SQUAMOUS CELL ADENOMA, SQUAMOUS CELL CARCINOMA, LU) turn out when `Nc1c(Br)cc(Br)c2c1C(=O)c1ccccc1C2=O` was run?
A: active; positive

Q: What about the carcinogen call (Species: MOUSE, Strain/Sex: B6C3F1/MALE, Route: ORAL, Dose: 0, 10000, 20000 PPM IN DIET FOR 104 WK (STUDY DURATION: 106 WK), Dose: 0, 10000, 20000 PPM IN DIET FOR 104 WK (STUDY DURATION: 106 WK), Tumor Site: Type of Lesion: LIVER: HEPATOCELLULAR ADENOMA, HEPATOCELLULAR CARCINOMA, HEPATOBLASTOMA, FORESTOMACH: SQUAMOUS CELL PAPILLOMA, SQUAMOUS) of the same molecule?
A: active; positive

Q: And the carcinogen call (Species: RAT, Strain/Sex: F344/FEMALE, Route: ORAL, Dose: 0, 2000, 5000, 10000 PPM IN DIET FOR UP TO 104 WK (STUDY DURATION: 106 WK), Dose: 0, 2000, 5000, 10000 PPM IN DIET FOR UP TO 104 WK (STUDY DURATION: 106 WK), Tumor Site: Type of Lesion: LIVER: HEPATOCELLULAR ADENOMA, HEPATOCELLULAR CARCINOMA, HEPATOCHOLANGIOCARCINOMA, LARGE INTESTINE: ADENOMA, CARCINOMA;, Tumor Site: Type of Lesion: LIVER: HEPATOCELLULAR ADENOMA, HEPATOCELLULAR CARCINOMA, HEPATOCHOLANGIOCARCINOMA, LARGE INTESTINE: ADENOMA, CARCINOMA)?
A: active; positive

Q: What about the carcinogen call (Species: RAT, Strain/Sex: F344/MALE, Route: ORAL, Dose: 0, 2000, 5000, 10000 PPM IN DIET FOR UP TO 104 WK (STUDY DURATION: 106 WK), Dose: 0, 2000, 5000, 10000 PPM IN DIET FOR UP TO 104 WK (STUDY DURATION: 106 WK), Tumor Site: Type of Lesion: LIVER: HEPATOCELLULAR ADENOMA, HEPATOCELLULAR CARCINOMA, HEPATOCHOLANGIOCARCINOMA, LARGE INTESTINE: ADENOMA, CARCINOMA;, Tumor Site: Type of Lesion: LIVER: HEPATOCELLULAR ADENOMA, HEPATOCELLULAR CARCINOMA, HEPATOCHOLANGIOCARCINOMA, LARGE INTESTINE: ADENOMA, CARCINOMA) of the same molecule?
A: active; positive

Q: `N[C@@H](Cc1ccc(N(CCCl)CCCl)cc1)C(=O)O` was tested. Which carcinogen call (Species: HUMAN, Route: ORAL, Tumor Site: Type of Lesion: HEMATOPOIETIC SYSTEM (LEUKEMIA), LYMPHATIC SYSTEM: LYMPHOMA) did it give?
A: active; positive

Q: And the carcinogen call (Species: MOUSE, Strain/Sex: STRAIN-A/MALE,FEMALE, Route: INTRAPERITONEAL, Dose: 0.27, 1.07, 4.27, 17.1 MG/KG IN 12 DOSES OVER 4 WK, Dose: 0.27, 1.07, 4.27, 17.1 MG/KG IN 12 DOSES OVER 4 WK, Tumor Site: Type of Lesion: LUNG: ADENOMA)?
A: active; positive

Q: What about the carcinogen call (Species: MOUSE, Strain/Sex: SWISS/FEMALE, Route: INTRAPERITONEAL, Dose: 0.75, 1.5 MG/KG 3/WK FOR 6 MO, Tumor Site: Type of Lesion: LUNG: ADENOMA) of the same molecule?
A: active; positive

Q: What about the carcinogen call (Species: MOUSE, Strain/Sex: SWISS/MALE, Route: INTRAPERITONEAL, Dose: 0.75, 1.5 MG/KG 3/WK FOR 6 MO, Tumor Site: Type of Lesion: LUNG: ADENOMA, LYMPHATIC SYSTEM: LYMPHOSARCOMA) of the same molecule?
A: active; positive

Q: And the carcinogen call (Species: RAT, Strain/Sex: STRAIN-CD/MALE,FEMALE, Route: INTRAPERITONEAL, Dose: 0.9, 1.8 MG/KG 3/WK FOR 6 MO, Tumor Site: Type of Lesion: PERITONEAL CAVITY: SARCOMA)?
A: active; positive

Q: For `CC(=O)N(O)c1ccc(-c2ccccc2)cc1`, which carcinogen call (Species: RAT, Strain/Sex: STRAIN-CD/FEMALE, Route: INTRAPERITONEAL, Dose: 0, 100 UMOL/KG BW 2/WK FOR 6 WK (STUDY DURATION: 62 WK)) is on record?
A: inactive; negative

Q: `O=C(O)CCC(=O)O` was tested. Which carcinogen call (Species: RAT, Strain/Sex: F344/FEMALE, Route: ORAL, Dose: 0, 1, 2% IN DRINKING WATER FOR 2 YR (STUDY DURATION: 2 YR), Dose: 0, 1, 2% IN DRINKING WATER FOR 2 YR (STUDY DURATION: 2 YR)) did it give?
A: inactive; negative

Q: And the carcinogen call (Species: RAT, Strain/Sex: F344/MALE, Route: ORAL, Dose: 0, 1, 2% IN DRINKING WATER FOR 2 YR (STUDY DURATION: 2 YR), Dose: 0, 1, 2% IN DRINKING WATER FOR 2 YR (STUDY DURATION: 2 YR))?
A: inactive; negative

Q: What does the source list for `Oc1ccc(-c2cc(Cl)c(Cl)c(Cl)c2Cl)cc1`?
A: carcinogen call (Species: MOUSE, Strain/Sex: BALB/CCRGL/FEMALE, Route: SUBCUTANEOUS, Dose: 40 UG DAILY FOR 5 D BEGINNING 16 HR AFTER BIRTH (STUDY DURATION: 20 MO), Tumor Site: Type of Lesion: MAMMARY GLAND: CARCINOMA (4/30), CERVICOVAGINAL TRACT: CARCINOMA (4/30)): active; positive; carcinogen call (Species: MOUSE, Strain/Sex: BALB/CCRGL/FEMALE, Route: SUBCUTANEOUS, Dose: 400 UG DAILY FOR 5 D BEGINNING 16 HR AFTER BIRTH (STUDY DURATION: 20 MO), Tumor Site: Type of Lesion: CERVICOVAGINAL TRACT: CARCINOMA (5/24)): active; positive

Q: Which results are given for `C=CCOC(=O)CC(C)C`?
A: carcinogen call (Species: MOUSE, Strain/Sex: B6C3F1/FEMALE, Route: GAVAGE, Dose: 0, 31, 62 MG/KG IN CORN OIL FOR 103 WK, Dose: 0, 31, 62 MG/KG IN CORN OIL FOR 103 WK, Tumor Site: Type of Lesion: LYMPHATIC SYSTEM: MALIGNANT LYMPHOMA): active; positive; carcinogen call (Species: RAT, Strain/Sex: F344/MALE, Route: GAVAGE, Dose: 0, 31, 62 MG/KG IN CORN OIL FOR 103 WK, Dose: 0, 31, 62 MG/KG IN CORN OIL FOR 103 WK, Tumor Site: Type of Lesion: HEMATOPOIETIC SYSTEM (LEUKEMIA): MONONUCLEAR CELL LEUKEMIA): active; positive
